Results: patent US9920061B2, “Imidazo[1,5-A]pyrimidinyl carboxamide compounds and their use in the treatment of medical disorders” (Lysosomal Therapeutics Inc., priority 2016, dated 2018)
Values after ≈ are worked out from the molar mass of the structure shown. Like-named read-outs stand apart in the source and are kept apart here.

How the values were obtained:
[1] = target: T1, glucocerebrosidase (Gcase) (Homo sapiens, UniProt P04062); test: Glucocerebrosidase (Gcase) activation assay, 4-methylumbelliferyl-beta-D-glucopyranoside substrate, with saposin C; type: biochemical
T1 sequence (P04062 40-536): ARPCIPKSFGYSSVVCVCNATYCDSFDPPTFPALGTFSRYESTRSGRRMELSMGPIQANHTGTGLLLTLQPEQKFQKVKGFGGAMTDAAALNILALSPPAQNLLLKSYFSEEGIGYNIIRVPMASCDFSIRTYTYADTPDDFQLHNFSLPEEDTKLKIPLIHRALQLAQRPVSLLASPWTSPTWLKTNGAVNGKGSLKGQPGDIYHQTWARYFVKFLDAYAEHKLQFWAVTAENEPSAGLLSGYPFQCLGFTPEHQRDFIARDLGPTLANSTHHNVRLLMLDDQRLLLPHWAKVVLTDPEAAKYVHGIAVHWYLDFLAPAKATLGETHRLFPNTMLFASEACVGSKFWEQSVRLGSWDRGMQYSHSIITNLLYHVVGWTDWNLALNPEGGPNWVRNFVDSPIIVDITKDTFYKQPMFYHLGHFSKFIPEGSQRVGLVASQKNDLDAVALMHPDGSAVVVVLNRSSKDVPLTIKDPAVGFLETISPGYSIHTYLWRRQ
Summary of the method: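 Micellar buffer (176 mM K2HPO4/50 mM citric acid, pH 4.7; 0.32 mM triton, 0.37 mol % PS) holding 10 nM GCase and 100 nM saposin C, pre-incubated with compound 30 min at room temperature. Substrate final 2 mM before mixing; 15 min reaction, glycine pH 12.5 stop, fluorescence 365/440 nm. Screened at 1.0 and 0.1 μM; 8-point, 3-fold dose response.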

[2] = Compound solubility in water; type: physicochemical
[3] = 0.1 μM test compound, read-out: Percent Gcase Activation 0.1 μM Test Compound
[4] = 1 μM test compound, read-out: Percent Gcase Activation 1 μM Test Compound
[5] = test compound at 0.1 μM, read-out: Percent Gcase Activation, 0.1 μM Test Compound
[6] = test compound at 1.0 μM, read-out: Percent Gcase Activation, 1 μM Test Compound

activation at 0.1 µM [1, 3]	activation at 1 µM [1, 4]	solubility [2]	activation at 0.1 µM [1, 5]	activation at 1 µM [1, 6]	solubility ([2]; in water)	Compound
> 20%	> 60%	2.2 µg/mL (≈ 5.91 µM)				C#Cc1cccc(C(NC(=O)c2ncn3c(C)cc(C)nc23)C(F)(F)F)c1 (stereo not drawn) [III-3]
< 10%	< 30%	23.4 µg/mL (≈ 69.6 µM)				Cc1cc(-c2cncnc2)nc2c(C(=O)NC(C)(C)C3CC3)ncn12 [III-57]
10 to 20%	30 to 60%	25.4 µg/mL (≈ 71.3 µM)				Cc1cc(OC(C)C)nc2c(C(=O)NC(C3CC3)C(F)(F)F)ncn12 (stereo not drawn) [III-177]
> 20%	> 60%	1.8 µg/mL (≈ 4.94 µM)				CCc1cc(-c2cccc(OC)c2)nc2c(C(=O)N[C@@H](C)C3CC3)ncn12 [III-161]
< 10%	> 60%	22.5 µg/mL (≈ 59.9 µM)				Cc1cc(-c2cccnc2)nc2c(C(=O)NC(C3CC3)C(F)(F)F)ncn12 (stereo not drawn) [III-71]
> 20%	> 60%	0.9 µg/mL (≈ 2.36 µM)				CNc1cc(C)n2cnc(C(=O)NC(c3ccc(F)cc3)C(F)(F)F)c2n1 (stereo not drawn) [III-17]
			> 20%	> 60%	1.2 µg/mL (≈ 3.06 µM)	Cc1cc(-c2ccc3c(c2)OCO3)nc2c(C(=O)NC(C)C(F)(F)F)ncn12 (stereo not drawn) [IV-76]
< 10%	> 60%	44.4 µg/mL (≈ 130 µM)				Cc1cc(-c2cncs2)nc2c(C(=O)NC(C)(C)C3CC3)ncn12 [III-58]
< 10%	> 60%	12 µg/mL (≈ 41.9 µM)				Cc1cc(C)n2cnc(C(=O)NC(C)(C)CC3CC3)c2n1 [III-46]
			< 10%	< 30%	17.5 µg/mL (≈ 42.1 µM)	Cc1cc(-c2ccc3nncn3c2)nc2c(C(=O)NC(C3CC3)C(F)(F)F)ncn12 (stereo not drawn) [IV-43]
			> 20%	> 60%	2.2 µg/mL (≈ 5.55 µM)	COc1cc(F)cc(-c2cc(C)n3cnc(C(=O)N[C@@H](C)C(F)(F)F)c3n2)c1 [IV-59]
> 20%	> 60%	4.5 µg/mL (≈ 13.4 µM)				C#CC(C)(C)NC(=O)c1ncn2c(C)cc(-c3cccc(F)c3)nc12 [III-164]
> 20%	> 60%	0.4 µg/mL (≈ 1.02 µM)				Cc1cc(-c2cccc(F)c2)nc2c(C(=O)NC(C3CC3)C(F)(F)F)ncn12 (stereo not drawn) [III-163]
< 10%	30 to 60%	17.3 µg/mL (≈ 49.2 µM)				COc1cncc(-c2cc(C)n3cnc(C(=O)N[C@@H](C)C4CC4)c3n2)c1 [III-97]
			< 10%	< 30%	32.8 µg/mL (≈ 97.2 µM)	Cc1cc(Oc2cccnc2)nc2c(C(=O)N[C@@H](C)C3CC3)ncn12 [IV-114]
			< 10%	30 to 60%	21 µg/mL (≈ 53 µM)	COc1c(F)cccc1-c1cc(C)n2cnc(C(=O)NC(C)C(F)(F)F)c2n1 (stereo not drawn) [IV-64]
10 to 20%	> 60%	9.3 µg/mL (≈ 27.5 µM)				Cc1cc(-c2ccc(F)cc2)nc2c(C(=O)N[C@@H](C)C3CC3)ncn12 [III-12]
> 20%	> 60%	3.4 µg/mL (≈ 10.4 µM)				Cc1cc(-c2cccc(F)c2)nc2c(C(=O)NC(C)(C)C)ncn12 [III-124]
			> 20%	> 60%	1.9 µg/mL (≈ 4.69 µM)	COc1cccc(-c2cc(C)n3cnc(C(=O)N[C@H](C4CC4)C(F)(F)F)c3n2)n1 [IV-13]
			> 20%	> 60%	1.3 µg/mL (≈ 3.03 µM)	COc1cccc(-c2cc(C)n3cnc(C(=O)NC(C4CC4)C(F)(F)F)c3n2)c1C#N (stereo not drawn) [IV-69]
< 10%	30 to 60%	0.8 µg/mL (≈ 2.11 µM)				CCOc1cccc(-c2cc(C)n3cnc(C(=O)NC(C)(C)C4CC4)c3n2)n1 [III-156]

activation at 0.1 µM [1, 3]	activation at 1 µM [1, 4]	solubility [2]	activation at 0.1 µM [1, 5]	activation at 1 µM [1, 6]	solubility ([2]; in water)	Compound
< 10%	< 30%	25 µg/mL (≈ 73.9 µM)				Cc1cc(-c2ccc(F)cc2)n2cnc(C(=O)N[C@@H](C)C3CC3)c2n1 [III-13]
> 20%	> 60%	0.8 µg/mL (≈ 1.96 µM)				Cc1cc(NC2CC2)nc2c(C(=O)NC(c3ccc(F)cc3)C(F)(F)F)ncn12 (stereo not drawn) [III-91]
> 20%	> 60%	17.2 µg/mL (≈ 41.2 µM)				Cc1cc(N2CCCC(F)(F)C2)nc2c(C(=O)NC(C3CC3)C(F)(F)F)ncn12 (stereo not drawn) [III-138]
> 20%	> 60%	7.8 µg/mL (≈ 22.3 µM)				COc1cccc(-c2cc(C)n3cnc(C(=O)NC(C)C4CC4)c3n2)c1 (stereo not drawn) [III-55]
< 10%	< 30%	32.2 µg/mL (≈ 79 µM)				Cc1cc(-c2cccnc2)nc2c(C(=O)N[C@H]3CC[C@H](OC(C)(C)C)CC3)ncn12 [III-64]
< 10%	30 to 60%	16.2 µg/mL (≈ 48.2 µM)				Cc1cc(-c2cnccn2)nc2c(C(=O)NC(C)(C)C3CC3)ncn12 [III-56]
> 20%	> 60%	4.6 µg/mL (≈ 12.7 µM)				Cc1cc(-c2ccccn2)nc2c(C(=O)NC(CC(C)C)C3CC3)ncn12 (stereo not drawn) [III-27]
10 to 20%	> 60%	4.2 µg/mL (≈ 10.5 µM)				Cc1cc(-n2ccc(Cl)n2)nc2c(C(=O)NC(C3CC3)C(F)(F)F)ncn12 (stereo not drawn) [III-143]
< 10%	< 30%	20.5 µg/mL (≈ 56.4 µM)				Cc1cc(N2CCC(F)(F)CC2)nc2c(C(=O)N[C@@H](C)C3CC3)ncn12 [III-115]
			> 20%	> 60%	3.2 µg/mL (≈ 8.78 µM)	Cc1cc(-c2ccoc2)nc2c(C(=O)NC(C3CC3)C(F)(F)F)ncn12 (stereo not drawn) [IV-84]
10 to 20%	> 60%	3 µg/mL (≈ 8.51 µM)				Cc1cc(-c2ccc(F)cc2)nc2c(C(=O)N[C@@H](C)C3CCC3)ncn12 [III-79]
10 to 20%	> 60%	1.1 µg/mL (≈ 2.97 µM)				Cc1cc(-c2ccc(Cl)nc2)nc2c(C(=O)NC(C)(C)C3CC3)ncn12 [III-76]
< 10%	30 to 60%	1.9 µg/mL (≈ 5.08 µM)				Cc1cc(-c2cnc(Cl)c(F)c2)nc2c(C(=O)N[C@@H](C)C3CC3)ncn12 [III-107]
			> 20%	> 60%	9.2 µg/mL (≈ 22.7 µM)	Cc1cc(-c2csc(C#N)c2)nc2c(C(=O)NC(C3CC3)C(F)(F)F)ncn12 (stereo not drawn) [IV-87]
> 20%	> 60%	1.6 µg/mL (≈ 3.85 µM)				Cc1cc(-c2cccc3ocnc23)nc2c(C(=O)NC(C3CC3)C(F)(F)F)ncn12 (stereo not drawn) [III-145]
			< 10%	< 30%	29.6 µg/mL (≈ 87.7 µM)	Cc1cc(Oc2ccncc2)nc2c(C(=O)N[C@@H](C)C3CC3)ncn12 [IV-115]
> 20%	> 60%	0.7 µg/mL (≈ 1.67 µM)				CCc1cc(-c2cccc(OC)n2)nc2c(C(=O)NC(C3CC3)C(F)(F)F)ncn12 (stereo not drawn) [III-149]
< 10%	< 30%	8.5 µg/mL (≈ 25.1 µM)				Cc1cc(-c2ccnn2C)nc2c(C(=O)NC(C)(C)C3CC3)ncn12 [III-69]
			> 20%	> 60%	2.3 µg/mL (≈ 5.8 µM)	COc1cc(F)cc(-c2cc(C)n3cnc(C(=O)N[C@H](C)C(F)(F)F)c3n2)c1 [IV-58]
> 20%	> 60%	7.1 µg/mL (≈ 16.5 µM)				Cc1cc(-c2cccnc2)nc2c(C(=O)NC(c3ccc(F)cc3)C(F)(F)F)ncn12 (stereo not drawn) [III-48]
